Calls of active or inactive are those of the source.
What was measured:
[1] = target: Voltage-gated inwardly rectifying potassium channel KCNH2 (Homo sapiens, UniProt Q12809); settings: Potency;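 note: confirmatory quantitative high-throughput screen measuring inhibition of hERG channel activity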
[2] = target: T1, Apoptotic protease-activating factor 1 (Homo sapiens, UniProt O14727); experiment: activation of Apaf-1 mediated apoptosis – fluorescent, uHTS hits, dose response (AID 588554); format: functional
T1 sequence (O14727 whole entry): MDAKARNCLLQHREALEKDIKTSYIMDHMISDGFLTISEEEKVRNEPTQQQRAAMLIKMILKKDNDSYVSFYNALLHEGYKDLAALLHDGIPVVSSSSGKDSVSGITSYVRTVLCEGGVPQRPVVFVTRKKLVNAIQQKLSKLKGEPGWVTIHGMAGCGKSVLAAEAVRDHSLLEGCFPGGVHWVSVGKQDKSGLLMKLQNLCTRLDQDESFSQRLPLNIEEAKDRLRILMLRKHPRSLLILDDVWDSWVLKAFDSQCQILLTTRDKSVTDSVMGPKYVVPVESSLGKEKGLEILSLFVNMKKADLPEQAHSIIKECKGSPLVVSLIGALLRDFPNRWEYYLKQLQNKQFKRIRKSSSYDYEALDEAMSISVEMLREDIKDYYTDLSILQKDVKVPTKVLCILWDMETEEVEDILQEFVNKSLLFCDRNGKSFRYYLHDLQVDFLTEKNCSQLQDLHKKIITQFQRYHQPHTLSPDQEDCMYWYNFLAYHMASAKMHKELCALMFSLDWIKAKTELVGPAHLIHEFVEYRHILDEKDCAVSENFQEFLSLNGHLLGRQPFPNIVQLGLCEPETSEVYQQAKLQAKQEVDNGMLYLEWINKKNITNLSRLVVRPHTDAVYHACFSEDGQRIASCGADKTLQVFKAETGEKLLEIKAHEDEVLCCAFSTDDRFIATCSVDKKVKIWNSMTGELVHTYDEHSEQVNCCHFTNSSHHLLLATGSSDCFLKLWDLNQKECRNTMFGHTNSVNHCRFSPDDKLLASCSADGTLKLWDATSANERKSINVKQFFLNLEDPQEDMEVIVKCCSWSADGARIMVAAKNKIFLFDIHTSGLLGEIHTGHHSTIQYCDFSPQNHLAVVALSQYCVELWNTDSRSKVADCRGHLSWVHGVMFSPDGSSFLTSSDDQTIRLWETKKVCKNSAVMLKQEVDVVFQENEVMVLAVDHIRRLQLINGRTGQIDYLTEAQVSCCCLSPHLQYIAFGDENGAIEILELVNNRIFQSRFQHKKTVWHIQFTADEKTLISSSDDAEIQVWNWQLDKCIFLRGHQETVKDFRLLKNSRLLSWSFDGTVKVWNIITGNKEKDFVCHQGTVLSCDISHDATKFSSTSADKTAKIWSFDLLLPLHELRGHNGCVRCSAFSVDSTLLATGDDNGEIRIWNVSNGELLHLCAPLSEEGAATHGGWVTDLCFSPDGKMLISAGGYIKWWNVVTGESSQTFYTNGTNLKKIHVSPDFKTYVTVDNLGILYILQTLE

[3] = target: FAD-linked sulfhydryl oxidase ALR (Homo sapiens, UniProt P55789); experiment: ALR-catalysed DTT oxidation blockers – biochemical, H2O2 detection, luminescence, cherry-pick, dose response (AID 493248)
Beta-galactosidase = Beta-galactosidase (Escherichia coli, UniProt Q8VNN2); experiment: detection-enzyme interference by beta-gal modulators – biochemical, E. coli enzyme, set 3, artefact control for CCR6 antagonist project, dose response (AID 504712); format: functional
A-375 [4] = experiment: proliferation inhibition in MITF-low A375 cells – cell-based, cherry-pick samples, set 2, counter-screen for MITF modulator project, dose response (AID 540335); format: functional; settings: Homo sapiens
[5] = target: T2, Microphthalmia-associated transcription factor (Homo sapiens, UniProt O75030); experiment: reducers of TRPM1 reporter luminescence, concentration series – cell-based, SK-MEL-5, cherry-picked, set 3, MITF inhibitor project, dose response (AID 493073); format: functional;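 note: SK-MEL-5 melanoma cells with luciferase driven by the MITF target TRPM1 promoter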
T2 sequence (O75030 whole entry): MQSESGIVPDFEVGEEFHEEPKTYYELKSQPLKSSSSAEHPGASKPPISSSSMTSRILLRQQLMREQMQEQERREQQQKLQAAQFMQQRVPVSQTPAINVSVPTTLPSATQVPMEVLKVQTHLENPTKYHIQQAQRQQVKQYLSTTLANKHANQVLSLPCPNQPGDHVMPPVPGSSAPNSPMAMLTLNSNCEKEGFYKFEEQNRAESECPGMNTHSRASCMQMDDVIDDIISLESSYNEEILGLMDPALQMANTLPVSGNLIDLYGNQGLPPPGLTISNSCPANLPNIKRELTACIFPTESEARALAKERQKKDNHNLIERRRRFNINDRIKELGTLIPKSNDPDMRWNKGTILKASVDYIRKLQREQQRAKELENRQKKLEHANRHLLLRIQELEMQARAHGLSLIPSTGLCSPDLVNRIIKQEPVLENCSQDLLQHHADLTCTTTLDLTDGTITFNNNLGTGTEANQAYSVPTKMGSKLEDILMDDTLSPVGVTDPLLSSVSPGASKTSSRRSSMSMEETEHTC

[6] = loss of viability in HepG2 cells – cell-based, CellTiter-Glo, cherry-picked, cytotoxicity control for Shn3 inhibitor project, dose response (AID 624134); format: functional
cells = format: functional
[7] = reduction of Shn3 3'UTR-driven luciferase in osteoblasts – cell-based, Clone20 osteoblasts, firefly luciferase, cherry-picked, dose response (AID 624132); format: functional;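 note: firefly luciferase luminescence from reporter carrying the Shn3 3'UTR in osteoblasts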
[8] = target: Eukaryotic translation initiation factor 4E (Mus musculus, UniProt P63073); experiment: blockers of eIF4G binding by eIF4E – biochemical, TR-FRET, dose response (AID 855); format: functional;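 note: potency for disrupting eIF4E binding to eIF4GI seen as loss of FRET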
[9] = Luminescence Cell-Based Dose Retest to Confirm Inhibitors of Cancer Stem Cells. [Related pubchem assays (depositor defined):AID2717, AID2721]; format: functional; settings: Homo sapiens
A-375 [10] = experiment: MITF: Counter assay: A375 proliferation Measured in Cell-Based System Using Plate Reader - 2084-03_Inhibitor_Dose_DryPowder_Activity. [Related pubchem assays (depositor defined):AID488944]; format: functional; settings: Homo sapiens
[11] = THP-1 cell cytotoxicity, dose response, cytotoxicity control for non-replicating M. tuberculosis project (AID 489025); format: functional
[12] = non-specific 3'UTR reporter inhibition in Clone20-Shn3RL – cell-based, Renilla luciferase, cherry-picked, counter-screen for Shn3 inhibitor project, dose response (AID 624133); format: functional
HeLa = experiment: ATP-based viability loss in HeLa cells – cell-based, CellTiter-Glo luminescence, cherry-pick samples, cytotoxicity control for MITF activator project, dose response (AID 540259); format: functional; settings: Homo sapiens
Large T antigen = Large T antigen (Simian virus 40, UniProt P03070); format: functional, Betapolyomavirus macacae;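 note: Confirmatory-stage PubChem screen for compounds that inhibit SV40 T antigen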
[13] = NIH-3T3 fibroblast cytotoxicity, dose response, cytotoxicity control, cell-based, fluorescence, Alamar Blue, secondary assay (AID 2327); format: functional;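 note: NIH-3T3 mouse fibroblasts cultured with fluconazole at 8 µg/mL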
[14] = target: Serine/threonine-protein phosphatase (Candida dubliniensis (strain CD36 / CBS 7987 / NCPF 3949 / NRRLY-17841) (Yeast), UniProt B9W6M3); experiment: blockers of CaCl2-induced CDRE-lacZ signaling – S. cerevisiae, luminescence, secondary, dose response (AID 2388); format: functional, cell-based;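 note: yeast reporter cells carrying a calcineurin-responsive lacZ construct stimulated with calcium chloride; luminescent beta-galactosidase reporter signal in whole cells rather than isolated phosphatase activity; potency for inhibition where a drop in reporter signal means calcineurin blockade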
[15] = target: ATP-dependent molecular chaperone HSP82 (Candida albicans (strain WO-1) (Yeast), UniProt C4YTQ8); experiment: steroid-induced GRE reporter decrease in yeast – S. cerevisiae, luminescence, Hsp90 inhibitor project, dose response (AID 2400); format: functional, cell-based;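 note: beta-galactosidase luminescence from glucocorticoid response element reporter as proxy for Hsp90 function; inhibitor potency where signal loss means Hsp90 inhibition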
[16] = fluconazole-exposed Candida albicans growth modulators – fluorescence, retest, confirmation (AID 2467); format: functional, cell-based
DNA topoisomerase = DNA topoisomerase (Yersinia pestis, UniProt A0A2S9PM60); experiment: Yersinia topoisomerase I cleavage product accumulation – biochemical, cherry-pick, dose response (AID 588525)
CHO = CHO cell viability loss, potency – luminescence, cytotoxicity control for TLR9-MyD88 binding inhibitor project, dose response (AID 588339); format: functional, cell-based, hamster; settings: Cricetulus griseus;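 note: CHO cells stably coexpressing TLR9 and MyD88 fusions from primary screen; compound exposure lasted 48 hours before viability readout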
[17] = target: T3, Endoribonuclease toxin MazF (Escherichia coli K-12, UniProt P0AE70); experiment: substrate-only fluorescence increase artefacts – biochemical, single-stranded RNase substrate, counter-screen for MazEF activator project, dose response (AID 588502); format: functional
Beta Lactamase = Beta Lactamase (Pseudomonas aeruginosa, UniProt Q932Y6); experiment: BLA reporter interference, concentration series – BLA reporter cells, FRET fluorescence, artefact control for TLR9-MyD88 binding inhibitor project, dose response (AID 588341); format: cell-based;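 note: cell based assay in CHO-K1 cells stably expressing beta-lactamase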
[18] = target: T3, Endoribonuclease toxin MazF; experiment: activation of MazEF endoribonuclease cleavage – biochemical, fluorescence, single-stranded RNA substrate, uHTS hits, dose response (AID 588481); format: functional
[19] = target: Luciferin 4-monooxygenase (Photuris pensylvanica, UniProt Q27757); experiment: inhibition of Cell Titer Glo luciferase signal – biochemical, luminescence, cherry-picks, counter-screen for HSF-1 reporter inhibitor project, dose response (AID 588847)
Candida albicans [20] = experiment: Candida growth reduction in fluconazole presence – CaCi-2 strain, Alamar Blue, dry powder, set 2, antifungal resistance reversal project, dose response (AID 488930); format: functional, organism-based
Candida albicans [21] = experiment: fluconazole-resistant Candida strain growth inhibitors – CaCi-8 strain, dry powder, set 4, dose response (AID 488950); format: functional, organism-based
Candida albicans [22] = experiment: resistant Candida growth with fluconazole co-treatment – CaCi-8 strain, Alamar Blue, dry powder, set 2, dose response (AID 488909); format: functional, organism-based
Candida albicans [23] = experiment: C. albicans growth inhibition with fluconazole – CaCi-2 strain, Alamar Blue, dry powder, set 4, dose response (AID 488943); format: functional, organism-based
[24] = target: Glycogen synthase kinase-3 alpha (Homo sapiens, UniProt P49840); experiment: Inhibition of Human GSK-3 alpha Activity Measured in Biochemical System Using Microfluidics - 2063-06_Inhibitor_Dose_DryPowder_Activity_Set2. [Related pubchem assays (depositor defined):AID2709]
[25] = target: Glycogen synthase kinase-3 beta (Homo sapiens, UniProt P49841); experiment: Inhibition of Human GSK-3 beta Activity Measured in Biochemical System Using Microfluidics - 2063-05_Inhibitor_Dose_DryPowder_Activity_Set2. [Related pubchem assays (depositor defined):AID2709]
[26] = target: Cyclin-dependent kinase 5/CDK5 activator 1 (Homo sapiens, UniProt Q00535); experiment: human CDK5 activity blockade – biochemical, microfluidic mobility shift, dry powder, selectivity assay for GSK-3 alpha inhibitor project, dose response (AID 588430)
HEK293 [27] = experiment: SAR Analysis of small molecule inhibitors of B-cell specific antigen receptor-induced NF-kB activation in a HEK-293T cell line using a luminescence assay - Set 2. [Related pubchem assays (depositor defined):AID435022, AID435025, AID489021]; format: functional, cell-based; settings: Homo sapiens
Jurkat = experiment: SAR Analysis of small molecule inhibitors of […] specific antigen receptor-induced NF-kB activation in a Jurkat cell line using a luminescence assay - Set 3. [Related pubchem assays (depositor defined):AID435022, AID435025, AID465]; format: functional, cell-based; settings: Homo sapiens
HEK293 [28] = experiment: HEK293T cell viability loss, resazurin readout – resazurin fluorescence, cytotoxicity control for NF-kB activator project, SAR follow-up (AID 493251); format: functional, cell-based; settings: Homo sapiens

T3 sequence (P0AE70 whole entry): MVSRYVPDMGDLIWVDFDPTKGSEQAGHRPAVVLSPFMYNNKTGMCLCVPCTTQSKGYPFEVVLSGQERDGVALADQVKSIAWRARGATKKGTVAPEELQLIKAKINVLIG
Chain of Voltage-gated inwardly rectifying potassium channel KCNH2 (Q12809 whole entry): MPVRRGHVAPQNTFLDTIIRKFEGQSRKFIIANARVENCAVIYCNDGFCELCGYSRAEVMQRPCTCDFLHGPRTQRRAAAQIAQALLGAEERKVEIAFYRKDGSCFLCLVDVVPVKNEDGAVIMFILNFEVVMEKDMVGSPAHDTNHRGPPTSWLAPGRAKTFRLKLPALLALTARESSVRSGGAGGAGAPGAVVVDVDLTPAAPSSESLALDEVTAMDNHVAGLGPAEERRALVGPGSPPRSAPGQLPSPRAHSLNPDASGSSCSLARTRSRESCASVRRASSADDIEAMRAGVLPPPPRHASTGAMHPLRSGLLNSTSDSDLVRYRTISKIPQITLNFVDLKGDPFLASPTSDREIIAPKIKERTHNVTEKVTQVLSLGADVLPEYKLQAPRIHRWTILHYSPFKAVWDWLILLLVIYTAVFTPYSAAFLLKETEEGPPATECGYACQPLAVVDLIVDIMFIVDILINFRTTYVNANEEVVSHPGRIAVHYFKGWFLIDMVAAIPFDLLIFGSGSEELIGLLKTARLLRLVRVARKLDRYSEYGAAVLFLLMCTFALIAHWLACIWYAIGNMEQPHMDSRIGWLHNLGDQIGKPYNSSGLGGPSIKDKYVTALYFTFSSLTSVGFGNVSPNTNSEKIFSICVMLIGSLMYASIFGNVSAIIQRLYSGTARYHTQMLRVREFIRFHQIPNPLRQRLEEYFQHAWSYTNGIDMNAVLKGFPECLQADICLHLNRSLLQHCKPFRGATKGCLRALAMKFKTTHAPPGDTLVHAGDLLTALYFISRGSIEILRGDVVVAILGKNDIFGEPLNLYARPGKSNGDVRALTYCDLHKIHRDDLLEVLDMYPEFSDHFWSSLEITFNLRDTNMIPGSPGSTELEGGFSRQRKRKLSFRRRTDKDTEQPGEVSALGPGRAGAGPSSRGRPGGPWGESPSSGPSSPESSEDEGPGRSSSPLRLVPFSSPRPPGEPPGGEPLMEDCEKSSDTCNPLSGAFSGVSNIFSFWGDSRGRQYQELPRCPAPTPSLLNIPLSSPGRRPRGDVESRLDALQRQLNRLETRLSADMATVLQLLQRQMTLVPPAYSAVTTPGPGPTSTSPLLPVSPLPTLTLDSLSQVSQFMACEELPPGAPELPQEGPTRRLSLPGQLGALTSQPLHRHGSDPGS
Chain of Luciferin 4-monooxygenase (Q27757 whole entry): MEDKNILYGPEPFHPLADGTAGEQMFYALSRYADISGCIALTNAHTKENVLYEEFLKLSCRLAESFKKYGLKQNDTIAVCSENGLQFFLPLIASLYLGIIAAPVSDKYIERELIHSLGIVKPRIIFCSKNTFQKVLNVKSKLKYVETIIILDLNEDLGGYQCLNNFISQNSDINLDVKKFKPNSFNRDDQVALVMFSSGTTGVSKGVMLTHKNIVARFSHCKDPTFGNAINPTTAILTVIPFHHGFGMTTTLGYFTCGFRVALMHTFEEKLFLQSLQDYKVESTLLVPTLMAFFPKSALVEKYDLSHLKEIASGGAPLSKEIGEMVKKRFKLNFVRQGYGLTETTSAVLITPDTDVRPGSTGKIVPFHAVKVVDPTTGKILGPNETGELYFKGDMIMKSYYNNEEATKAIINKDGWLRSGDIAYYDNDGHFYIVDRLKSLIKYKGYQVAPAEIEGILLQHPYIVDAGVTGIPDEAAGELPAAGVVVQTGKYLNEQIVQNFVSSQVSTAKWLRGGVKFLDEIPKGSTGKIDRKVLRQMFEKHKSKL
Chain of Beta-galactosidase (Q8VNN2 whole entry): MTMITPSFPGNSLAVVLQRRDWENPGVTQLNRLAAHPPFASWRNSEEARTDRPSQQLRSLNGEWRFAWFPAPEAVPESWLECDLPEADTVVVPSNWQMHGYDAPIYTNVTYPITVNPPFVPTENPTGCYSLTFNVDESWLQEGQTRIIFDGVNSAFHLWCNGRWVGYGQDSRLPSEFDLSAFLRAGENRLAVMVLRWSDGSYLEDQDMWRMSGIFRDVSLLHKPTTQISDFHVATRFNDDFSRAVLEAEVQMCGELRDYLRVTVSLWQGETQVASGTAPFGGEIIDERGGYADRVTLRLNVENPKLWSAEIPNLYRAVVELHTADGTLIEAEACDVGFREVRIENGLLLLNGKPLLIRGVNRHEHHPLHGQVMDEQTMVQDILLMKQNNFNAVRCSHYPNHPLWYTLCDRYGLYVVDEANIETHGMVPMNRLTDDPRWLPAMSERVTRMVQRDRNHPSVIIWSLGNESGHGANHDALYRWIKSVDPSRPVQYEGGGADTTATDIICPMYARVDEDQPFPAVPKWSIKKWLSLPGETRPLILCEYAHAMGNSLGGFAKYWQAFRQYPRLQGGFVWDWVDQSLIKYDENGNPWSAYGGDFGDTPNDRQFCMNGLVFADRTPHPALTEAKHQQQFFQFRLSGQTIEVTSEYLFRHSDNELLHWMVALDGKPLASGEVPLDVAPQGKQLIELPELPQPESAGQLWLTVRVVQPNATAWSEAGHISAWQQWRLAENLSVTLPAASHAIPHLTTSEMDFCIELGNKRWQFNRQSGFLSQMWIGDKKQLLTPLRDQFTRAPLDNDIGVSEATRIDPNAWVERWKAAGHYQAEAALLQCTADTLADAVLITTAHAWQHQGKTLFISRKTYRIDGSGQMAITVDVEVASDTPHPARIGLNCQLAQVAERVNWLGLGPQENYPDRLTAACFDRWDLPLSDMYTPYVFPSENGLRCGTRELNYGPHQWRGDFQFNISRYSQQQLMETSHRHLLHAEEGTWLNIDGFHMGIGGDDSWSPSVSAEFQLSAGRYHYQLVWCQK
Chain of Beta Lactamase (Q932Y6 whole entry): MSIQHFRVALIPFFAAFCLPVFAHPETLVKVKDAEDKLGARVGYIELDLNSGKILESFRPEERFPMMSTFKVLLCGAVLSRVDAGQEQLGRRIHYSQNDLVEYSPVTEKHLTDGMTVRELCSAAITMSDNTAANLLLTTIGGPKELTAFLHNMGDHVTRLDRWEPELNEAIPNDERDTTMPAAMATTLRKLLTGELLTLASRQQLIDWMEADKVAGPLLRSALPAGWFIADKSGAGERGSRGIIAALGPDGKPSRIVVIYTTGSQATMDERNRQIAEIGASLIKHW
Chain of Cyclin-dependent kinase 5/CDK5 activator 1 (Q00535 whole entry): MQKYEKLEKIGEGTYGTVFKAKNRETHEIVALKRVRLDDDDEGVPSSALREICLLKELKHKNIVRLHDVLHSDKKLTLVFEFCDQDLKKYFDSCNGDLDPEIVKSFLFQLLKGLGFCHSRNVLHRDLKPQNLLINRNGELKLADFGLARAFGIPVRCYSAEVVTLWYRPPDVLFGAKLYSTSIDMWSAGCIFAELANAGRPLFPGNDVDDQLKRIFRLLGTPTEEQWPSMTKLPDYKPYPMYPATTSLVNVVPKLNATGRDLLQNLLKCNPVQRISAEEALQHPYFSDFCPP
Chain of Cyclin-dependent kinase 5/CDK5 activator 1 (Q15078 whole entry, further chain): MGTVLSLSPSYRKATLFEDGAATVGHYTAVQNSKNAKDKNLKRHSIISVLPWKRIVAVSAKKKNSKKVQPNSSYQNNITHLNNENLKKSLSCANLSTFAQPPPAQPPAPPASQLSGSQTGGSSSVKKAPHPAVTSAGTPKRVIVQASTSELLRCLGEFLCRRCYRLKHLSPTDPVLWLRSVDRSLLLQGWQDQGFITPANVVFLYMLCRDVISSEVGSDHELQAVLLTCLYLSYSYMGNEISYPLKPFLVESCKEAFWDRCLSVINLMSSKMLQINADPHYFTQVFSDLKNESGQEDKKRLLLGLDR
Chain of Glycogen synthase kinase-3 beta (P49841 whole entry): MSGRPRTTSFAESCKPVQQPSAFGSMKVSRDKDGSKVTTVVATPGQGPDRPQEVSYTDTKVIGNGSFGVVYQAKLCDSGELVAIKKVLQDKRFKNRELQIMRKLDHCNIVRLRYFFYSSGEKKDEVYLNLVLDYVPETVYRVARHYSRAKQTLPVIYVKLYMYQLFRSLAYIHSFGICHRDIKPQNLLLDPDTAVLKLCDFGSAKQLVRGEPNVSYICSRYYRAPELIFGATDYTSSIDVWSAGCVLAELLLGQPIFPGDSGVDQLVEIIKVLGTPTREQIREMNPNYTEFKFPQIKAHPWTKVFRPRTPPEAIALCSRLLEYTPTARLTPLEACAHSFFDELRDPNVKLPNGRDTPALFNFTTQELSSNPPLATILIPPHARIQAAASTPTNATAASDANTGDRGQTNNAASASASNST
Chain of Glycogen synthase kinase-3 alpha (P49840 whole entry): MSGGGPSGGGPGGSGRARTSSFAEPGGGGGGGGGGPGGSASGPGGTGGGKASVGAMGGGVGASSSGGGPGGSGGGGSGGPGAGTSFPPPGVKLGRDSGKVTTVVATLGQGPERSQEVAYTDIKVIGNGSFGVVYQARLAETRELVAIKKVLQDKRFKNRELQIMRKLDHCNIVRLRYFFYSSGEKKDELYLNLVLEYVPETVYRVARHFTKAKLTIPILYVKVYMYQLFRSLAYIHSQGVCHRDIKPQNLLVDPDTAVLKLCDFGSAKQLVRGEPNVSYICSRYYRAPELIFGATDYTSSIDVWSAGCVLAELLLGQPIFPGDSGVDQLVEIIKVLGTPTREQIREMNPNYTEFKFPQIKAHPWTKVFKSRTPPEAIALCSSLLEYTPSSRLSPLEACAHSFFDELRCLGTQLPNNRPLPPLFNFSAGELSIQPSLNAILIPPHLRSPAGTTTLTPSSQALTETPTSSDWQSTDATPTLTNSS
Chain of Eukaryotic translation initiation factor 4E (P63073 whole entry): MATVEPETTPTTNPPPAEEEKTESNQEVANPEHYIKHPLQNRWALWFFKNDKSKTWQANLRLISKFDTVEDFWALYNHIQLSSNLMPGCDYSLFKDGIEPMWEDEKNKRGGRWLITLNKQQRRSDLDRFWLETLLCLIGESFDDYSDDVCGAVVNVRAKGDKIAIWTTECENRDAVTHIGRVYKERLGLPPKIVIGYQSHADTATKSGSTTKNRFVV

With `COc1ccccc1N1CCN(CCN(C(=O)C2CCCCC2)c2ccccn2)CC1` the AC50 [1] was 31.6 µM (inconclusive).
With `N#CCCn1cc(C(CC(=O)c2ccc(Br)cc2)C(=O)O)c2ccccc21` (stereo unspecified) the EC50 [2] was 22.9 µM (active) and the AC50 [3] was > 100 µM (inactive).
With `Cc1ccc(Oc2c(C(N)=O)cc([N+](=O)[O-])cc2[N+](=O)[O-])cc1` the IC50 (Beta-galactosidase) was > 66.6 µM (inactive), the AC50 (A-375 [4]) was > 11 µM (active) and the AC50 [5] was 3.68 µM (active). The AC50 [6] was 25.2 µM (active), the IC50 (cells) was 1.31 µM (active) and the AC50 [7] was 11.9 µM (active). The IC50 [8] was > 64 µM (inactive), the AC50 [9] was 2.99 µM (active) and the AC50 (A-375 [10]) was > 11 µM (active). The CC50 [11] was 22.4 µM (active) and the AC50 [12] was 4.73 µM (active).
For `Cc1ccc(C(=O)O/N=C(\N)c2ccc(Br)cc2)cc1`, the AC50 (HeLa) was 48.5 µM (active).
With `O=Nc1c(-c2cccc([N+](=O)[O-])c2)nc2ncccn12` the IC50 (Large T antigen) was 32.5 µM (active), the EC50 [13] was > 160 µM (inconclusive) and the EC50 [14] was 0.828 µM (active). For the same compound, the EC50 [15] was 0.826 µM (active) and the EC50 [16] was 1.11 µM (active).
With `Cc1ccc(S(=O)(=O)N=C(N)Nc2nc(C)c3cc(C)ccc3n2)cc1` the AC50 (DNA topoisomerase) was 14.2 µM (active).
With `COc1ccc(OC)c(/C=C/c2nc3ccccc3nc2O)c1` the IC50 (CHO) was 28.4 µM (inactive), the EC50 [17] was > 99 µM (inactive) and the IC50 (Beta Lactamase) was 8.5 µM (active). For the same compound, the EC50 [18] was > 99 µM (inactive).
With `CC12CCC(=O)C=C1CCC1C2C(O)CC2(C)C1CCC2(O)C(=O)CO` (stereo unspecified) the AC50 [19] was > 52 µM (inactive).
In the case of `O=C(C1CCCC1)N1CCN(c2ccnc3cc(Cl)ccc23)CC1`, the AC50 (Candida albicans [20]) was 0.566 µM (active), the AC50 (Candida albicans [21]) was 1.71 µM (active) and the AC50 (Candida albicans [22]) was 2.01 µM (active). The AC50 (Candida albicans [23]) was 2.08 µM (active).
In the case of `COc1cc(/C=N/Nc2ccc([N+](=O)[O-])cn2)cc(OC)c1O`, the AC50 [24] was 0.367 µM (active), the AC50 [25] was 0.095 µM (active) and the AC50 [26] was 1.55 µM (active).
With `CCOCCCNC(=O)CSCc1nc(-c2ccc(OCC)cc2)oc1C` the IC50 (HEK293 [27]) was > 80 µM (inactive), the IC50 (Jurkat) was 51.9 µM (inactive) and the IC50 (HEK293 [28]) was > 80 µM (inactive).

From ChEMBL document CHEMBL1201862, “PubChem BioAssay data set” (2004)
